Laboratory results published in patent US20050085554A1, “Methods of treating disease through the administration of a manzamine analog or derivative” (priority 2003, published 2005).
In brackets after ≈: the same amount, converted by molar mass.

Tests used:
[1] = system: Mycobacterium tuberculosis H37Rv; assay: In vitro antimycobacterial activity (Microplate Alamar Blue Assay), MIC; format: cell-based; conditions: for Mycobacterium Tuberculosis (H37Rv) MIC: T4
[2] = system: Plasmodium falciparum (D6 clone); assay: Antimalarial activity in vitro, D6 clone; format: cell-based
[3] = system: Mycobacterium intracellulare; assay: Activity against M. intracellulare; format: cell-based; conditions: for IC50 M. intracellulare: T5, NA = not active
HIV-1LAV = assay: Anti-HIV-1 activity in PBM cells; format: cell-based, human immunodeficiency virus (HIV-1); conditions: for EC50: T5
Procedure: Anti-HIV-1 activity was determined in PBM cells as described previously. See, Stock solutions (20 or 40 mM) of the compounds were prepared in sterile DMSO and then diluted to the desired concentration in growth medium. Cells were infected with the prototype HIV-1LAV at a multiplicity of infection of 0.1. Details on the infection of cells and assessment of antiviral effects was described previously. See, Schinazi, R. F.; McMillan, A.; Cannon, D.; Mathis, R.; Lloyd, R. M.; Peck, A.; Sommadossi, J.-P.; Clair, M. S.; Wilson, J.; Furman, P. A.; Painter G.; Choi, W.-B.; Liotta, D. C. Antimicrob. Agents Chemother. 1992, 36, 2423-2431 and Schinazi, R. F.; Sommadossi, J.-P.; Saalmann, V.; Cannon, D. L.; Xie, M.-Y.; Hart, G. C.; Smith, G. A.; Hahn, E. F. Antimicrob. Agents Chemother. 1990, 34, 1061-1067.

[4] = system: P. falciparum (chlorine-resistant W2 clone); assay: Antimalarial activity in vitro, W2 clone; format: cell-based, Plasmodium falciparum
Cryptococcus neoformans = assay: Antifungal activity against Cryptococcus neoformans; format: cell-based; conditions: for Antifungal IC50 C. neoformans: T5, NA = not active
Staphylococcus aureus = assay: Antibacterial activity against S. aureus; format: cell-based; conditions: T5; NA = not active
[5] = system: methicillin-resistant Staphylococcus aureus; assay: Antibacterial activity against MRS; format: cell-based; conditions: T5; NA = not active
Leishmania donovani = assay: Antileishmanial activity in vitro; format: cell-based
[6] = system: human colon carcinoma H-116
Vero cells = assay: In vitro cytotoxicity to mammalian cells (Vero)
[7] = system: human lung carcinoma A-549
[8] = T4, NC = No Cytotoxicity (concentration: 4760 ng/ml)

Compound	Mycobacterium Tuberculosis (H37Rv) MIC [1] [mg/L]	Plasmodium falciparum (D6 clone) IC 50 ([2]; T4, NA = not active) [mg/L]	IC50 M. intracellulare [3] [mg/L]	EC50 (HIV-1LAV) [µM]	P. falciparum (chlorine-resistant W2 clone) IC 50 ([4]; T4, NA = not active) [mg/L]	Antifungal IC50 C. neoformans (Cryptococcus neoformans) [mg/L]	Antibacterial IC50 S. aureus (Staphylococcus aureus) [mg/L]	Antibacterial IC50 MRS [5] [mg/L]	Leishmania donovani IC 50 (Leishmania donovani; T4) [mg/L]	Leishmania donovani IC 90 (Leishmania donovani; T4) [mg/L]	EC50 against human immunodeficiency virus (HIV-1) (HIV-1LAV) [mg/L]	IC50 against the fungus Cryptococcus neoformans (Cryptococcus neoformans) [mg/L]	Cytotoxicity (Vero) (Vero cells; [8]) [ng/mL]	other results
Oc1cccc2c1[nH]c1c(C3=C[C@@]4(O)CC/C=C\CCCCN5CCC3[C@]3(CC6/C=C\CCCCN6[C@H]34)C5)nccc12 (single isomer, unassigned; (+)) [(+)-8-Hydroxymanzamine A]	0.91	0.006	1.0 (≈ 1.77 µM)	0.59	0.008	3.0	0.9	4.0	6.2	11	–	–	–	–
O[C@]12C=C(c3nccc4c3[nH]c3ccccc34)C3CCN(CCCC/C=C\CC1)C[C@@]31C[C@]34CC[C@H](CCCN3[C@H]12)O4 (some centres unmarked) [6-Deoxymanzamine X]	1.77	1.3	6.25 (≈ 11.1 µM)	1.6	1.4	2.0	1.5	1.5	3.2	7.5	–	–	–	–
CC(=O)C[C@@H]1C[C@H]2[C@H]([C@@H]3c4[nH]c5ccccc5c4CCN13)[C@H](O)C13CC/C=C\CCCCN1CC21C2CCCCCCCN2[C@H]13 (some centres unmarked) [Manadomanzamine B]	–	–	–	–	–	–	–	–	–	–	16.5 (≈ 27 µM)	3.5 (≈ 5.73 µM)	–	MIC against Mycobacterium tuberculosis (Mtb) ([1]; rifampin = positive control): 1.53 mg/L (≈ 2.5 µM); IC50 against human colon carcinoma H-116 [6]: 5.0 mg/L (≈ 8.18 µM)
O[C@]12C=C(c3nccc4c3[nH]c3ccccc34)[C@@H]3CCN(CCCC/C=C\CC1)C[C@@]31C[C@@H]3/C=C\CCCCN3[C@H]12 [Manzamine A]	1.53	0.0045	0.35 (≈ 0.638 µM)	4.2	0.008	3.0	0.5	0.7	0.9	1.8	–	–	1200	Plasmodium falciparum (D6 clone) IC 50 ([2]; T7): 0.0045 mg/L; M. intracellulare IC50 ([3]; T7, first value of a cell '2.0/5.0'): 1.53 mg/L; P. falciparum (chlorine-resistant W2 clone) IC 50 ([4]; T7): 0.008 mg/L; Leishmania donovani IC 50 (Leishmania donovani; T7): 0.9 mg/L; Leishmania donovani IC 90 (Leishmania donovani; T7): 1.8 mg/L; Cytotoxicity (Vero) (Vero cells; T7, NC not defined in this table): 1200 ng/mL
Manzamine A N-oxide	3.9	0.011	0.2	–	0.013	1.0	0.5	0.35	1.1	3.8	–	–	420	–
xestomanzamine A	–	–	–	–	–	–	–	–	–	–	11.2	6.0	–	Anti-TB MIC ([1]; T1, no unit in table): 14.1 mg/L; Cytotoxicity IC50 A-594 [7]: >5 mg/L; Cytotoxicity IC50 H-116 [6]: >5 mg/L
